Source: patent US9320278B2, “Methods of controlling insects” (Syngenta Participations AG, priority 2012, dated 2016)

Tested on: Anthonomus grandis (Cotton Boll Weevil)
Experiment: Anthonomus grandis (Cotton Boll Weevil) test on treated cotton plants, mortality
Format: in vivo
Description: Anthonomus grandis (Cotton Boll Weevil)
Cotton plants are treated (100 mL spray volume) and 10 adult weevils are added to each plant (2 replicates per concentration). 5 days after infestation the mortality is assessed.
Compounds are tested according to the above method.

[1] = application rate 0.01 ppm, treated cotton plants, 10 adult weevils per plant, mortality 5 days after infestation
[2] = application rate 0.05 ppm, treated cotton plants, 10 adult weevils per plant, mortality 5 days after infestation
[3] = application rate 0.2 ppm, treated cotton plants, 10 adult weevils per plant, mortality 5 days after infestation
[4] = application rate 0.8 ppm, treated cotton plants, 10 adult weevils per plant, mortality 5 days after infestation
[5] = application rate 3 ppm, treated cotton plants, 10 adult weevils per plant, mortality 5 days after infestation
[6] = application rate 12.5 ppm, treated cotton plants, 10 adult weevils per plant, mortality 5 days after infestation
[7] = application rate 50 ppm, treated cotton plants, 10 adult weevils per plant, mortality 5 days after infestation
[8] = comparative example, application rate 0.8 ppm, Anthonomus grandis (Cotton boll weevil)
[9] = comparative example, application rate 3 ppm, Anthonomus grandis (Cotton boll weevil)
[10] = comparative example, application rate 12.5 ppm, Anthonomus grandis (Cotton boll weevil)

Structure (SMILES) | Control/% [1] [%] | Control/% [2] [%] | Control/% [3] [%] | Control/% [4] [%] | Control/% [5] [%] | Control/% [6] [%] | Control/% [7] [%] | Control/% [8] [%] | Control/% [9] [%] | Control/% [10] [%]
Cc1cc(C2=NOC(c3cc(Cl)cc(Cl)c3)(C(F)(F)F)C2)ccc1C(=O)NC1CON(CC(F)F)C1=O (mixture of isomers) [Compound A6] | 35 | 50 | 95 | 100 | 100 | – | – | – | – | –
CCN1OC[C@@H](NC(=O)c2ccc(C3=NO[C@@](c4cc(Cl)cc(Cl)c4)(C(F)(F)F)C3)cc2C)C1=O [Compound A17] | – | – | 20 | 50 | 100 | 100 | 100 | – | – | –
Cc1cc(C2=NOC(c3cc(Cl)cc(Cl)c3)(C(F)(F)F)C2)ccc1C(=O)N[C@@H]1CON(Cc2ccccc2)C1=O (stereo partly drawn) [Reference compound, reference compound] | – | – | – | – | – | – | – | 10 | 30 | 30
Cc1cc(C2=NO[C@@](c3cc(Cl)cc(Cl)c3)(C(F)(F)F)C2)ccc1C(=O)N[C@@H]1CON(CC(F)(F)F)C1=O [Compound A16] | 0 | 55 | 100 | 100 | 100 | – | – | – | – | –
CCN1OC[C@@H](NC(=O)c2ccc(C3=NO[C@@](c4cc(Cl)c(F)c(Cl)c4)(C(F)(F)F)C3)cc2Cl)C1=O [Compound A19] | – | – | 60 | 30 | 85 | 95 | 100 | – | – | –
Cc1cc(C2=NOC(c3cc(Cl)cc(Cl)c3)(C(F)(F)F)C2)ccc1C(=O)NC1CON(C)C1=O (mixture of isomers) [Compound A2] | – | – | 45 | 80 | 100 | 100 | 100 | – | – | –
CCN1OCC(NC(=O)c2ccc(C3=NOC(c4cc(Cl)cc(Cl)c4)(C(F)(F)F)C3)cc2C)C1=O (mixture of isomers) [Compound A9] | – | – | 25 | 15 | 75 | 100 | 100 | – | – | –
CCN1OC[C@@H](NC(=O)c2ccc(C3=NO[C@@](c4cc(Cl)cc(C(F)(F)F)c4)(C(F)(F)F)C3)c3ccccc23)C1=O [Compound A18] | – | – | 0 | 40 | 30 | 35 | 100 | – | – | –
Cc1cc(C2=NOC(c3cc(Cl)c(Cl)c(Cl)c3)(C(F)(F)F)C2)ccc1C(=O)NC1CON(CC(F)(F)F)C1=O (mixture of isomers) [Compound A1] | – | – | 45 | 90 | 100 | 100 | 95 | – | – | –
Cc1cc(C2=NOC(c3cc(Cl)cc(Cl)c3)(C(F)(F)F)C2)ccc1C(=O)NC1CON(CC(F)(F)F)C1=O (mixture of isomers) [Compound A8] | 20 | 35 | 70 | 100 | 100 | – | – | – | – | –
Cc1cc(C2=NO[C@@](c3cc(Cl)cc(Cl)c3)(C(F)(F)F)C2)ccc1C(=O)N[C@H]1CON(CC(F)(F)F)C1=O [Compound A3] | – | – | 60 | 60 | 100 | 100 | 100 | – | – | –
CCN1OC[C@@H](NC(=O)c2ccc(C3=NO[C@@](c4cc(Cl)c(F)c(Cl)c4)(C(F)(F)F)C3)cc2C)C1=O [Compound A20] | – | – | 15 | 60 | 100 | 100 | 100 | – | – | –
CCN1OCC(NC(=O)c2ccc(C3=NOC(c4cc(Cl)c(F)c(Cl)c4)(C(F)(F)F)C3)cc2C)C1=O (mixture of isomers) [Compound A5] | – | – | 40 | 40 | 95 | 100 | 100 | – | – | –
Cc1cc(C2=NOC(c3cc(Cl)cc(Cl)c3)(C(F)(F)F)C2)ccc1C(=O)NC1CON(CC(F)(F)F)C1=O (mixture of isomers) [Compound A21] | – | – | 70 | – | – | 100 | 100 | – | – | –
Cc1cc(C2=NOC(c3cc(Cl)cc(Cl)c3)(C(F)(F)F)C2)ccc1C(=O)N[C@@H]1CON(CC(F)(F)F)C1=O (stereo partly drawn) [Compound of the invention] | – | – | – | – | – | – | – | 100 | 100 | 100
